The values that follow are results of earlier work, collected in patent US5480779A (priority 1988, dated 1996).

The target in the series is peptidyl-prolyl cis-trans-isomerase (Sus scrofa, UniProt P62936).
peptidyl-prolyl cis-trans-isomerase, sequence (P62936 whole entry): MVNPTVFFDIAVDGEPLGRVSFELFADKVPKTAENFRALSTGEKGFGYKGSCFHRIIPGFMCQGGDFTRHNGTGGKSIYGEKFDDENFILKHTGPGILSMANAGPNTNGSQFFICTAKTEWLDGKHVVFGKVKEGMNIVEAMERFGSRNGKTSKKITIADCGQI
Consider `CCCCCCCCCCCCOS(=O)(=O)[O-].[Na+]` [sodium dodecylsulfate], for which the “inactivation / inhibition of the enzyme” value is “strongly inactivated”.
For the compound `O=C(O)c1cc[c]([Hg][Cl])cc1` [p-chloromercuribenzoate], the “inactivation / inhibition of the enzyme” value is given as “strongly inactivated”.
With chloroiosylamidophenylbutane, the “inactivation / inhibition of the enzyme” value is recorded as “not inhibited”.
